We go through 24 compounds from patent US4940714A, “2-substituted carbonylimidazo[4,5-c]quinolines” (Shionogi & Co., Ltd., priority 1988, dated 1990).

One assay concerns the target Benzodiazepine Receptor. Description: Test on Binding to Benzodiazepine Receptor (inhibition of specific binding of tritium-labeled diazepam). The note with it: 2 nM tritium-labeled diazepam, 0° C., 60 minutes, rat cerebral cortex receptor preparation. Further details: species or system male Wistar rats (cerebral cortex). As to the method: Test on Binding to Benzodiazepine Receptor
This test was carried out modifying partially a method of Mohler & Okada, Science, 198, 849-851 (1977). Receptor preparation was provided from the cerebral cortex of male Wistar rats (11-13 weeks age). Inhibitory action of the test compound on the specific binding of tritium-labeled diazepam to the receptor was evaluated as follows: 2 nM tritium-labeled diazepam and an aqueous solution of the test compound in 5 or 6 different concentrations were incubated with the receptor preparation at 0° C. for 60 minutes. The 50% inhibitory concentration (IC50) was measured by the concentration-response curve. In addition, the inhibitory constant (Ki) of the test compound was calculated by dissociation constant (Kd) and concentration (L) of the tritium-labeled diazepam.

Assay [1] has as its system Pentylenetetrazole-Induced Convulsion. Description: Potentiation of Pentylenetetrazole-Induced Convulsion (inverse agonist activity). The format is in vivo. The note with it: Mus musculus; intravenous injection; pentylenetetrazole 90 mg/kg subcutaneous; 2-hour observation; male mice; probit method; read-out: ED50 (dose required to produce tonic convulsion and death in 50% of the animals). As to the method:
Potentiation of Pentylenetetrazole-Induced Convulsion
Inverse agonist activity was evaluated in this Experiment. Pentylenetetrazole was subscutaneously administered male mice (a group of 8-16 male mice was employed in each test) at a dose of 90 mg/kg immediately after intravenous injection of the test compound. The dose (ED50) required to produce tonic convulsion and death in 50% of the aminals during subsequent 2-hour observation period was calculated by the probit method.

Assay [2] has the same test system. Put plainly: Antagonism of Pentylenetetrazole-Induced Convulsion (agonistic activity). The assay is classed as in vivo. The note with it: Mus musculus; intravenous injection; pentylenetetrazole 125 mg/kg subcutaneous; 2-hour observation; male mice; probit method; read-out: ED50 (dose required to prevent tonic convulsion and death in 50% of the animals). As to the method:
Anatagonism of Pentylenetetrazole-Induced Convulsion
Agonistic activity was evaluated in this Experiment. Pentylenetetrazole was subscutaneously administered male mice (a group of 8-16 male mice was employed in each test) at a dose of 125 mg/kg immediately after intravenous injection of the test compound. The dose (ED50) required to prevent tonic convulsion and death in 50% of the animals during subsequent 2-hour observation period was calculated by the probit method.

The subject of assay [3] is learning and memory. The note with it: M. Sarter et al., TINS 11, 13 (1988); cited from earlier work.
The test system of assay [4] is learning and memory. The note with it: M. Sarter et al., TINS 11, 13 (1988); cited from earlier work. The source holds these as a separate data set.

As for `O=C(c1nc2cnc3ccccc3c2[nH]1)C1CC1` [Ic-1, 2-Cyclopropylcarbonyl-1H-imidazo[4,5-c]quinoline], the Ki on Benzodiazepine Receptor was 0.357 nM.

Turning to `CCC(=O)c1nc2cnc3ccccc3c2[nH]1` [Ic-4], the affinity at Benzodiazepine Receptor corresponds to a Ki of 0.409 nM.

On to `CCCC(=O)c1nc2cnc3ccccc3c2[nH]1` [Ic-6], for which the ED50 in assay [1] was 1 mg/kg. In addition, at Benzodiazepine Receptor, the Ki came to 0.432 nM.

At Benzodiazepine Receptor, `CCCCCCC(=O)c1nc2cnc3ccccc3c2[nH]1` [Ic-9] came in with a Ki of 6.11 nM. In assay [2], the ED50 was determined as 3.21 mg/kg.

For `CC(C)C(=O)c1nc2cnc3ccccc3c2[nH]1` [Ic-14], the ED50 in assay [1] worked out at 0.2 mg/kg. The Ki at Benzodiazepine Receptor came to 1.24 nM.

With `CCC(C)C(=O)c1nc2cnc3ccccc3c2[nH]1` (stereo not shown) [Ic-18], the Ki on Benzodiazepine Receptor stood at 3.6 nM.

With `O=C(c1nc2cnc3ccc(F)cc3c2[nH]1)C1CC1` [Ic-21], the affinity on Benzodiazepine Receptor corresponds to a Ki of 0.5 nM.

On to `COc1ccc2c(c1)ncc1nc(C(=O)C3CC3)[nH]c12` [Ic-22], for which, in assay [1], the ED50 turned out to be 0.15 mg/kg. Also, the Ki on Benzodiazepine Receptor was 1.9 nM.

`C/C=C/C(=O)c1nc2cnc3ccccc3c2[nH]1` [Ic-27] yielded a Ki at Benzodiazepine Receptor of 13.1 nM. In addition, in assay [2], the ED50 was found to be 2.47 mg/kg.

As to `CSCCC(=O)c1nc2cnc3ccccc3c2[nH]1` [Ic-31], the affinity at Benzodiazepine Receptor corresponds to a Ki of 1.5 nM.

Take `O=C(c1nc2cnc3ccccc3c2[nH]1)c1ccc(Cl)s1` [Ic-36, 2-[(5-Chlorothiophen-2-yl)carbonyl]-1H-imidazo[4,5-c]quinoline]: the ED50 in assay [2] was determined as 0.46 mg/kg.

`O=C(c1nc2cnc3ccccc3c2[nH]1)c1ccccc1F` [Ic-37] showed a Ki at Benzodiazepine Receptor of 2.21 nM.

On to `O=C(c1cccc(F)c1)c1nc2cnc3ccccc3c2[nH]1` [Ic-38], for which the ED50 in assay [2] was 1.12 mg/kg.

Turning to `O=C(c1ccc(Cl)cc1)c1nc2cnc3ccccc3c2[nH]1` [Ic-41], the Ki at Benzodiazepine Receptor was 8.33 nM.

On to `CSc1ccc(C(=O)c2nc3cnc4ccccc4c3[nH]2)cc1` [Ic-45], for which the affinity on Benzodiazepine Receptor corresponds to a Ki of 3.2 nM. In addition, in assay [2], the ED50 was 0.88 mg/kg.

The compound `O=C(c1cccnc1)c1nc2cnc3ccccc3c2[nH]1` [Ic-49] displayed a Ki at Benzodiazepine Receptor of 1.8 nM.

As to `O=C(c1nc2cnc3ccccc3c2[nH]1)c1cccs1` [Ic-50], at Benzodiazepine Receptor, the affinity, expressed as Ki, was 0.819 nM.

In the case of `O=C(c1nc2cnc3ccccc3c2[nH]1)c1ccco1` [Ic-56], on Benzodiazepine Receptor, the Ki was found to be 1.07 nM.

Turning to `Cc1cc(C(=O)c2nc3cnc4ccccc4c3[nH]2)no1` [Ic-60], the ED50 in assay [1] was determined as 0.71 mg/kg. On Benzodiazepine Receptor, the Ki turned out to be 0.373 nM.

Consider `CCOC(=O)c1nc2cnc3ccccc3c2[nH]1` [Ic-64, 2-Ethoxycarbonyl-1H-imidazo[4,5-c]quinoline], for which the ED50 in assay [1] is 0.31 mg/kg.

In the case of `CCNC(=O)c1nc2cnc3ccccc3c2[nH]1` [Ic-67], the ED50 in assay [1] worked out at 0.35 mg/kg.

`O=C(c1ccccc1)c1nc2cnc3ccccc3c2[nH]1` [Id-2]: the ED50 in assay [2] came to 1.06 mg/kg.

`CN1C(=O)CN=C(c2ccccc2)c2cc(Cl)ccc21` [diazepam]: the “performance (learning and memory) in humans” value with learning and memory [3] is recorded as “impairs such performance”.

As for `COC(=O)c1cc2c(cn1)[nH]c1ccccc12` [methyl β-carbonline-3-carboxylate], the “performance in several animal models of learning and memory” value with learning and memory [4] was “enhances the performance”.

Broadly, the Ki is a dissociation constant, usually derived from enzyme kinetics or from competition with a known ligand. What is called ED50 is the dose that gives a 50% effect, or the effect in half of the subjects.
